Measurements as given in patent publication US20040014215A1, “Synchronised arabidopsis cell suspensions and uses thereof” (priority 2000, published 2004).

Assays:
[1] = system: Arabidopsis cell suspension culture MM1; assay: Aphidicolin (4.16 μg/ml, 21.5 hrs) block/release of MM1: proportion of G1, S and G2 cells by flow cytometry; assay type: cell-based, Arabidopsis thaliana
Description: Arabidopsis cell suspension culture MM1 (DSM 13563) was used for synchronisation experiments. The suspension culture was maintained by sub-culturing weekly 10 ml into 200 ml of fresh MSS-medium (MS-salt, 3% sucrose, 0.5 mg/l NAA, 0.05 mg/l kinetin) which is cultured in 500 ml narrow neck Erlenmeyer flasks, of which the opening is covered with double layer of aluminium foil and loosely covered with Saran wrap and which are placed on a GYROTORY® Shaker (New Brunswick Scientific). The cell suspension culture was grown under continuous light conditions (24 hrs a day); Philips lamps were used with the specification TLD HF 50W/840; light level is in average 1300 Lux and the cell suspension culture is rotated at 120 rpm at a temperature varying between 23-25° C. To arrest cells reversibly in late G1/early S-phase, cells were blocked with aphidicolin according to Nagata et al. 1992 (with slight modifications), 40 ml of an early stationary phase cell suspension culture was subcultured into 200 ml MSS-medium, 4.16 μg/ml aphidicolin was added to block cells at the end of G1/early S-phase, and the culture was incubated at 23° C., 120 rpm in the conditions as described above for MM1, for a period of 21.5 hrs. To remove aphidicolin, cells were washed through a nylon mesh (mesh size 47 μm) with 11 MSS-medium by vigorously shaking and resuspended in MSS-medium. The cells were vigorously shaken, for a washing time of about 14 min, and then centrifuged at 150Orpm for 1 min (387 rcf) with the brake switched off.
The level of synchronicity of the Arabidopsis cell suspension culture MM1 was analysed by flow cytometry. The cell pellet from 5 ml of cell suspension culture was frozen in liquid nitrogen. To analyse the DNA content, the High Resolution Kit for Plant ploidy analysis (Type P) (Partec, Cat. No. 06-5-4004) was used, containing solution A (to release cell nuclei) and solution B (to stain DNA with DAPI). A sample of the frozen cell pellet was transferred into a small petri-dish (5 cm diameter), 150 μl of solution A was added, and the sample was carefully chopped with vertical motion of a sharp razor blade. An additional 150 μl of solution A was added, the cell suspension pipetted up and down for several time before leaving for approximately 2 min at RT. The released cell nuclei were filtered through a 50 μm nylon mesh (Partec, CellTrics 50 μm, Cat. No. 06-4-2317) and 1 ml of solution B was added to the filtrate. On average 8200 particles were counted with a flow cytometer (PASIII; Partec GmbH, Germany), using HBO lamp excitation (Partec, mercury lamp HBO 100 long life, 100W) and detection of emission using a blue filter. Cell cycle phases were analysed using Multicycle for Windows (Phoenix Flow Systems, San Diego, Calif.). Flow cytometry results are not corrected for the mitotic cells (which are not measured by this method).

[2] = system: tobacco BY-2 cell line; conditions: BY-2, aphidicolin block; cited from earlier work

C[C@@]1(CO)[C@H](O)CC[C@@]2(C)[C@H]1CC[C@H]1C[C@@H]3C[C@@]12CC[C@]3(O)CO [aphidicolin]
G1 (%) MM1 ([1]; 0 h after aphidicolin removal): 50.6% | G2 (%) MM1 ([1]; 0 h after aphidicolin removal): 19.3% | S (%) MM1 ([1]; 0 h after aphidicolin removal): 30.1% | G1 (%) MM1 ([1]; 1 h after aphidicolin removal): 23.7% | G2 (%) MM1 ([1]; 1 h after aphidicolin removal): 11.4% | S (%) MM1 ([1]; 1 h after aphidicolin removal): 64.9% | G1 (%) MM1 ([1]; 2 h after aphidicolin removal): 23.8% | G2 (%) MM1 ([1]; 2 h after aphidicolin removal): 11.4% | S (%) MM1 ([1]; 2 h after aphidicolin removal): 64.8% | G1 (%) MM1 ([1]; 3 h after aphidicolin removal): 27.2% | G2 (%) MM1 ([1]; 3 h after aphidicolin removal): 10.4% | S (%) MM1 ([1]; 3 h after aphidicolin removal): 62.5% | G1 (%) MM1 ([1]; 4 h after aphidicolin removal): 23.2% | G2 (%) MM1 ([1]; 4 h after aphidicolin removal): 44.8% | S (%) MM1 ([1]; 4 h after aphidicolin removal): 32% | G1 (%) MM1 ([1]; 5 h after aphidicolin removal): 19.9% | G2 (%) MM1 ([1]; 5 h after aphidicolin removal): 63.8% | S (%) MM1 ([1]; 5 h after aphidicolin removal): 16.3% | G1 (%) MM1 ([1]; 6 h after aphidicolin removal): 16.1% | G2 (%) MM1 ([1]; 6 h after aphidicolin removal): 83.9% | S (%) MM1 ([1]; 6 h after aphidicolin removal): 0% | G1 (%) MM1 ([1]; 7 h after aphidicolin removal): 13.8% | G2 (%) MM1 ([1]; 7 h after aphidicolin removal): 85.7% | S (%) MM1 ([1]; 7 h after aphidicolin removal): 0.5% | G1 (%) MM1 ([1]; 8 h after aphidicolin removal): 10.9% | G2 (%) MM1 ([1]; 8 h after aphidicolin removal): 88.8% | S (%) MM1 ([1]; 8 h after aphidicolin removal): 0.3% | G1 (%) MM1 ([1]; 9 h after aphidicolin removal): 11.1% | G2 (%) MM1 ([1]; 9 h after aphidicolin removal): 88.9% | S (%) MM1 ([1]; 9 h after aphidicolin removal): 0% | G1 (%) MM1 ([1]; 10 h after aphidicolin removal): 10.8% | G2 (%) MM1 ([1]; 10 h after aphidicolin removal): 89.2% | S (%) MM1 ([1]; 10 h after aphidicolin removal): 0% | G1 (%) MM1 ([1]; 11 h after aphidicolin removal): 13.4% | G2 (%) MM1 ([1]; 11 h after aphidicolin removal): 86.6% | S (%) MM1 ([1]; 11 h after aphidicolin removal): 0% | G1 (%) MM1 ([1]; 12 h after aphidicolin removal): 15.1% | G2 (%) MM1 ([1]; 12 h after aphidicolin removal): 84.1% | S (%) MM1 ([1]; 12 h after aphidicolin removal): 0.8% | G1 (%) MM1 ([1]; 13 h after aphidicolin removal): 22.9% | G2 (%) MM1 ([1]; 13 h after aphidicolin removal): 77.1% | S (%) MM1 ([1]; 13 h after aphidicolin removal): 0% | G1 (%) MM1 ([1]; 14 h after aphidicolin removal): 31.5% | G2 (%) MM1 ([1]; 14 h after aphidicolin removal): 68.5% | S (%) MM1 ([1]; 14 h after aphidicolin removal): 0% | G1 (%) MM1 ([1]; 15 h after aphidicolin removal): 38.6% | G2 (%) MM1 ([1]; 15 h after aphidicolin removal): 61.3% | S (%) MM1 ([1]; 15 h after aphidicolin removal): 0.2% | G1 (%) MM1 ([1]; 16 h after aphidicolin removal): 33.4% | G2 (%) MM1 ([1]; 16 h after aphidicolin removal): 59.6% | S (%) MM1 ([1]; 16 h after aphidicolin removal): 6.9% | G1 (%) MM1 ([1]; 17 h after aphidicolin removal): 36.3% | G2 (%) MM1 ([1]; 17 h after aphidicolin removal): 57.5% | S (%) MM1 ([1]; 17 h after aphidicolin removal): 6.2% | G1 (%) MM1 ([1]; 18 h after aphidicolin removal): 35.7% | G2 (%) MM1 ([1]; 18 h after aphidicolin removal): 56.1% | S (%) MM1 ([1]; 18 h after aphidicolin removal): 8.2% | G1 (%) MM1 ([1]; 19 h after aphidicolin removal): 38.4% | G2 (%) MM1 ([1]; 19 h after aphidicolin removal): 55.6% | S (%) MM1 ([1]; 19 h after aphidicolin removal): 6% | G1 (%) MM1 ([1]; 20 h after aphidicolin removal): 41.1% | G2 (%) MM1 ([1]; 20 h after aphidicolin removal): 48.8% | S (%) MM1 ([1]; 20 h after aphidicolin removal): 10% | mitotic index [2]: 45-50%
